Results from the NIST ThermoML archive (doi:10.1016/j.jct.2015.02.023).
Numbers after ± are expanded uncertainties.

experiment: activity coefficient (dimensionless); of the first substance listed, at infinite dilution; xn = mol fraction of the nth substance listed; conditions: 333.15 K; 101.33 kPa; Liquid; Chromatography; x1 = 0

Compared with `CCCCCCCCCCCCC` [tridecane] + CO[PH](=O)[O-].Cn1cc[n+](C)c1, `CCCCCCCCCCC` [undecane] + CO[PH](=O)[O-].Cn1cc[n+](C)c1 is lower in activity coefficient: 2160 ± 150 for the first, 1400 ± 97 for the second.

Compared with `C1CCCCC1` [cyclohexane] + CCn1cc[n+](C)c1.CO[PH](=O)[O-], `C1CCCCCC1` [cycloheptane] + CCn1cc[n+](C)c1.CO[PH](=O)[O-] is higher in activity coefficient: 43.1 ± 3 for the first, 180 ± 12 for the second.

Compared with `Cc1cccc(C)c1` [1,3-dimethylbenzene] + CCn1cc[n+](C)c1.CO[PH](=O)[O-], `Cc1ccccc1` [toluene] + CO[PH](=O)[O-].Cn1cc[n+](C)c1 is lower in activity coefficient: 18.8 ± 1.3 for the first, 11.3 ± 0.77 for the second.

Going from `CCC(=O)CC` [pentan-3-one] + CCn1cc[n+](C)c1.CO[PH](=O)[O-] to `CCCC(C)=O` [pentan-2-one] + CO[PH](=O)[O-].Cn1cc[n+](C)c1, the activity coefficient rises from 5.88 ± 0.4 to 10.3 ± 0.7.

Going from `C#CCCCCC` [1-heptyne] + CO[PH](=O)[O-].Cn1cc[n+](C)c1 to `CCCCCCCCCC` [decane] + CCn1cc[n+](C)c1.CO[PH](=O)[O-], the activity coefficient rises from 23.5 ± 1.6 to 704 ± 48.

Going from `CC#N` [acetonitrile] + CO[PH](=O)[O-].Cn1cc[n+](C)c1 to `CO` [methanol] + CCn1cc[n+](C)c1.CO[PH](=O)[O-], the activity coefficient falls from 1.12 ± 0.07 to 0.072 ± 0.03.

Compared with `CCc1ccccc1` [ethylbenzene] + CO[PH](=O)[O-].Cn1cc[n+](C)c1, `Cc1ccccc1C` [1,2-dimethylbenzene] + CO[PH](=O)[O-].Cn1cc[n+](C)c1 is lower in activity coefficient: 21.7 ± 1.5 for the first, 18.6 ± 1.3 for the second.

Compared with `CCCCCCCCCCCCC` [tridecane] + CCn1cc[n+](C)c1.CO[PH](=O)[O-], `CCN(CC)CC` [triethylamine] + CCn1cc[n+](C)c1.CO[PH](=O)[O-] is lower in activity coefficient: 2130 ± 150 for the first, 48 ± 3.3 for the second.

Compared with `C[N+](=O)[O-]` [nitromethane] + CCn1cc[n+](C)c1.CO[PH](=O)[O-], `CCC[N+](=O)[O-]` [1-nitropropane] + CO[PH](=O)[O-].Cn1cc[n+](C)c1 is higher in activity coefficient: 0.787 ± 0.051 for the first, 3.29 ± 0.22 for the second.

Going from `CC1CCCCC1` [methylcyclohexane] + CCn1cc[n+](C)c1.CO[PH](=O)[O-] to `C[N+](=O)[O-]` [nitromethane] + CO[PH](=O)[O-].Cn1cc[n+](C)c1, the activity coefficient falls from 70.8 ± 4.9 to 0.82 ± 0.05.

Going from `ClC(Cl)(Cl)Cl` [tetrachloromethane] + CO[PH](=O)[O-].Cn1cc[n+](C)c1 to `c1ccccc1` [benzene] + CCn1cc[n+](C)c1.CO[PH](=O)[O-], the activity coefficient falls from 7.03 ± 0.48 to 3.52 ± 0.24.

Compared with `c1ccccc1` [benzene] + CO[PH](=O)[O-].Cn1cc[n+](C)c1, `c1ccncc1` [pyridine] + CO[PH](=O)[O-].Cn1cc[n+](C)c1 is lower in activity coefficient: 5.52 ± 0.38 for the first, 2.17 ± 0.15 for the second.

For `CCCC(C)=O` [pentan-2-one] + CCn1cc[n+](C)c1.CO[PH](=O)[O-], the activity coefficient was 6.13 ± 0.42.

same assay, conditions: 343.15 K; 101.33 kPa; Liquid; Chromatography; x1 = 0

Going from `CCCCCCCCCCCCC` [tridecane] + CO[PH](=O)[O-].Cn1cc[n+](C)c1 to `CCCCCCCCCCC` [undecane] + CO[PH](=O)[O-].Cn1cc[n+](C)c1, the activity coefficient falls from 2120 ± 150 to 1330 ± 92.

Compared with `C#CCCCCC` [1-heptyne] + CO[PH](=O)[O-].Cn1cc[n+](C)c1, `CCC[N+](=O)[O-]` [1-nitropropane] + CO[PH](=O)[O-].Cn1cc[n+](C)c1 is lower in activity coefficient: 24.9 ± 1.7 for the first, 3.29 ± 0.22 for the second.

Going from `CC#N` [acetonitrile] + CO[PH](=O)[O-].Cn1cc[n+](C)c1 to `CCO` [ethanol] + CO[PH](=O)[O-].Cn1cc[n+](C)c1, the activity coefficient falls from 1.12 ± 0.07 to 0.16 ± 0.03.

Compared with `CCc1ccccc1` [ethylbenzene] + CO[PH](=O)[O-].Cn1cc[n+](C)c1, `Cc1ccccc1` [toluene] + CO[PH](=O)[O-].Cn1cc[n+](C)c1 is lower in activity coefficient: 21.5 ± 1.5 for the first, 11.2 ± 0.77 for the second.

First: Cc1ccccc1C [1,2-dimethylbenzene] + CO[PH](=O)[O-].Cn1cc[n+](C)c1
Second: c1ccccc1 [benzene] + CO[PH](=O)[O-].Cn1cc[n+](C)c1
The activity coefficient of the first is higher: 18.5 ± 1.3 for the first, 5.43 ± 0.37 for the second.

Going from `C[N+](=O)[O-]` [nitromethane] + CO[PH](=O)[O-].Cn1cc[n+](C)c1 to `CCCC(C)=O` [pentan-2-one] + CO[PH](=O)[O-].Cn1cc[n+](C)c1, the activity coefficient rises from 0.83 ± 0.05 to 10.1 ± 0.7.

With `c1ccncc1` [pyridine] + CO[PH](=O)[O-].Cn1cc[n+](C)c1 the activity coefficient was 2.19 ± 0.15.

same assay, conditions: 353.15 K; 101.33 kPa; Liquid; Chromatography; x1 = 0

First: c1ccncc1 [pyridine] + CCn1cc[n+](C)c1.CO[PH](=O)[O-]
Second: c1ccccc1 [benzene] + CCn1cc[n+](C)c1.CO[PH](=O)[O-]
The activity coefficient of the first is lower: 1.95 ± 0.13 for the first, 3.61 ± 0.25 for the second.

Going from `Cc1ccccc1C` [1,2-dimethylbenzene] + CCn1cc[n+](C)c1.CO[PH](=O)[O-] to `Cc1cccc(C)c1` [1,3-dimethylbenzene] + CCn1cc[n+](C)c1.CO[PH](=O)[O-], the activity coefficient rises from 16.2 ± 1.1 to 20.4 ± 1.4.

`CCC(=O)CC` [pentan-3-one] + CCn1cc[n+](C)c1.CO[PH](=O)[O-] and `CCCC(C)=O` [pentan-2-one] + CCn1cc[n+](C)c1.CO[PH](=O)[O-] are within error of each other in activity coefficient: 6 ± 0.41 for the first, 6.15 ± 0.42 for the second.

First: CCCCCCCCCC [decane] + CCn1cc[n+](C)c1.CO[PH](=O)[O-]
Second: CCCCCCCCCCCCC [tridecane] + CCn1cc[n+](C)c1.CO[PH](=O)[O-]
The activity coefficient of the first is lower: 582 ± 40 for the first, 1850 ± 130 for the second.

Going from `C[N+](=O)[O-]` [nitromethane] + CCn1cc[n+](C)c1.CO[PH](=O)[O-] to `CO` [methanol] + CCn1cc[n+](C)c1.CO[PH](=O)[O-], the activity coefficient falls from 0.831 ± 0.054 to 0.078 ± 0.03.

First: C1CCCCCC1 [cycloheptane] + CCn1cc[n+](C)c1.CO[PH](=O)[O-]
Second: CCCO [propan-1-ol] + CCn1cc[n+](C)c1.CO[PH](=O)[O-]
The activity coefficient of the first is higher: 303 ± 21 for the first, 0.207 ± 0.029 for the second.

same assay, conditions: 373.15 K; 101.33 kPa; Liquid; Chromatography; x1 = 0

Going from `c1ccncc1` [pyridine] + CCn1cc[n+](C)c1.CO[PH](=O)[O-] to `c1ccccc1` [benzene] + CCn1cc[n+](C)c1.CO[PH](=O)[O-], the activity coefficient rises from 2 ± 0.14 to 3.75 ± 0.26.

First: Cc1ccccc1C [1,2-dimethylbenzene] + CCn1cc[n+](C)c1.CO[PH](=O)[O-]
Second: Cc1cccc(C)c1 [1,3-dimethylbenzene] + CCn1cc[n+](C)c1.CO[PH](=O)[O-]
The activity coefficient of the first is lower: 18.8 ± 1.3 for the first, 24.9 ± 1.7 for the second.

`CCC(=O)CC` [pentan-3-one] + CCn1cc[n+](C)c1.CO[PH](=O)[O-] and `CCCC(C)=O` [pentan-2-one] + CCn1cc[n+](C)c1.CO[PH](=O)[O-] are within error of each other in activity coefficient: 6.17 ± 0.42 for the first, 6.18 ± 0.42 for the second.

Going from `CCCCCCCCCCCCC` [tridecane] + CCn1cc[n+](C)c1.CO[PH](=O)[O-] to `CCCO` [propan-1-ol] + CCn1cc[n+](C)c1.CO[PH](=O)[O-], the activity coefficient falls from 1300 ± 89 to 0.214 ± 0.029.

Compared with `C[N+](=O)[O-]` [nitromethane] + CCn1cc[n+](C)c1.CO[PH](=O)[O-], `CO` [methanol] + CCn1cc[n+](C)c1.CO[PH](=O)[O-] is lower in activity coefficient: 0.873 ± 0.056 for the first, 0.088 ± 0.03 for the second.

`C1CCCCCC1` [cycloheptane] + CCn1cc[n+](C)c1.CO[PH](=O)[O-] showed an activity coefficient of 438 ± 30.
